# Data as given in ChEMBL document CHEMBL1201862, “PubChem BioAssay data set” (2004).
#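 All cell lines were grown in 96-well plates and treated with compound for 48 hours. GI50 is the concentration that inhibits growth by half.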 Calls of active or inactive are those of the source. No stated cut-off is given here; in the data, active = GI50 up to about 1.1 µM and inactive = higher.
# How the values were obtained:
# Test in all cases: NCI-60 cell line screen, 48 h
# T47D = system: T47D
# MDA-MB-231 = system: MDA-MB-231
# NCI/ADR-RES = system: NCI/ADR-RES
# SF-295 = system: SF-295
# SR = system: SR
# 786-0 = system: 786-0
# DU-145 = system: DU-145
# A498 = system: A498
# COLO 205 = system: COLO 205
# IGROV-1 = system: IGROV-1
# HCT-15 = system: HCT-15
# A549 = system: A549
# LOX IMVI = system: LOX IMVI
# SK-MEL-5 = system: SK-MEL-5
# MDA-MB-435 = system: MDA-MB-435
# CAKI-1 = system: CAKI-1
# BT-549 = system: BT-549
# HCC 2998 = system: HCC 2998
# SN12C = system: SN12C
SMILES,GI50 (T47D),GI50 (MDA-MB-231),GI50 (NCI/ADR-RES),GI50 (SF-295),GI50 (SR),GI50 (786-0),GI50 (DU-145),GI50 (A498),GI50 (COLO 205),GI50 (IGROV-1),GI50 (HCT-15) [µM],GI50 (A549),GI50 (LOX IMVI),GI50 (SK-MEL-5),GI50 (MDA-MB-435),GI50 (CAKI-1),GI50 (BT-549),GI50 (HCC 2998),GI50 (SN12C)
Cc1ccc(Nc2nc(=O)c3c4ccccc4n(C(=O)OC(C)(C)C)c3s2)cc1,39.2 µM (inactive),33.1 µM (inactive),10.6 µM (inactive),23 µM (inactive),12.8 µM (inactive),15.3 µM (inactive),33.7 µM (inactive),39.1 µM (inactive),35.4 µM (inactive),21.9 µM (inactive),22.3,28.8 µM (inactive),18.7 µM (inactive),13.2 µM (inactive),4.9 µM (inactive),18.2 µM (inactive),26.6 µM (inactive),,
Cc1nc2ccc(F)cc2c2c1CCS2,33.7 µM (inactive),39.9 µM (inactive),95.1 µM (inactive),94.4 µM (inactive),56.8 µM (inactive),78.7 µM (inactive),> 100 µM (inactive),> 100 µM (inactive),38.5 µM (inactive),> 100 µM (inactive),> 100,> 100 µM (inactive),51.3 µM (inactive),30.3 µM (inactive),35.8 µM (inactive),,54.8 µM (inactive),58.1 µM (inactive),
N=C(CCl)NC1CN2CCC1CC2 (stereo unspecified),56.1 µM (inactive),> 100 µM (inactive),> 100 µM (inactive),> 100 µM (inactive),32.7 µM (inactive),97.5 µM (inactive),> 100 µM (inactive),> 100 µM (inactive),27.4 µM (inactive),> 100 µM (inactive),> 100,> 100 µM (inactive),34.1 µM (inactive),> 100 µM (inactive),> 100 µM (inactive),50.9 µM (inactive),> 100 µM (inactive),,66.7 µM (inactive)
O=C(O)c1ccccc1/N=N/c1c(O)c(S(=O)(=O)O)cc2cc(S(=O)(=O)O)ccc12,> 100 µM (inactive),> 100 µM (inactive),> 100 µM (inactive),> 100 µM (inactive),> 100 µM (inactive),> 100 µM (inactive),> 100 µM (inactive),> 100 µM (inactive),> 100 µM (inactive),> 100 µM (inactive),> 100,> 100 µM (inactive),,> 100 µM (inactive),> 100 µM (inactive),> 100 µM (inactive),> 100 µM (inactive),> 100 µM (inactive),> 100 µM (inactive)
NC(=S)NNCC(=O)CC(O)(C(F)(F)F)C(F)(F)Cl (stereo unspecified),64.7 µM (inactive),> 100 µM (inactive),> 100 µM (inactive),> 100 µM (inactive),> 100 µM (inactive),> 100 µM (inactive),> 100 µM (inactive),> 100 µM (inactive),> 100 µM (inactive),> 100 µM (inactive),> 100,> 100 µM (inactive),> 100 µM (inactive),> 100 µM (inactive),> 100 µM (inactive),> 100 µM (inactive),> 100 µM (inactive),,
O=C(CC1C=CCS1(=O)=O)NCc1ccccc1 (stereo unspecified),> 100 µM (inactive),> 100 µM (inactive),> 100 µM (inactive),> 100 µM (inactive),> 100 µM (inactive),> 100 µM (inactive),> 100 µM (inactive),,> 100 µM (inactive),> 100 µM (inactive),> 100,> 100 µM (inactive),> 100 µM (inactive),> 100 µM (inactive),> 100 µM (inactive),> 100 µM (inactive),> 100 µM (inactive),> 100 µM (inactive),> 100 µM (inactive)
CC(=O)c1cccc(Nc2nc3ccccc3c3occc23)c1,21 µM (inactive),24.8 µM (inactive),23 µM (inactive),16.2 µM (inactive),47 µM (inactive),16.7 µM (inactive),33.6 µM (inactive),9.98 µM (inactive),> 100 µM (inactive),,36.4,13.5 µM (inactive),46.2 µM (inactive),12.7 µM (inactive),33.3 µM (inactive),32.8 µM (inactive),15.2 µM (inactive),46.1 µM (inactive),13.2 µM (inactive)
O=C(c1ccco1)N(C(=S)OC12CC3CC(CC(C3)C1)C2)c1ccccc1,47.2 µM (inactive),31.8 µM (inactive),28.6 µM (inactive),27.7 µM (inactive),25.7 µM (inactive),31.2 µM (inactive),52.8 µM (inactive),23.3 µM (inactive),16.4 µM (inactive),,28.2,32.2 µM (inactive),26.7 µM (inactive),17.7 µM (inactive),28.9 µM (inactive),33.3 µM (inactive),34.5 µM (inactive),25.1 µM (inactive),27.9 µM (inactive)
CCOC(=O)c1nc2ccc(C(F)(F)F)cc2nc1Nc1cc(OC)c(OC)c(OC)c1,> 100 µM (inactive),> 100 µM (inactive),> 100 µM (inactive),> 100 µM (inactive),> 100 µM (inactive),> 100 µM (inactive),> 100 µM (inactive),> 100 µM (inactive),> 100 µM (inactive),> 100 µM (inactive),> 100,> 100 µM (inactive),> 100 µM (inactive),> 100 µM (inactive),> 100 µM (inactive),,> 100 µM (inactive),> 100 µM (inactive),> 100 µM (inactive)
O=[N+]([O-])c1ccc(S[C@@H]2[C@H]3c4c(-c5ccccc5)[nH]c(-c5ccccc5)c4[C@@H]2C[C@H]3Cl)cc1,1.93 µM (inactive),4.8 µM (inactive),2.87 µM (inactive),3.71 µM (inactive),1.14 µM (inactive),2.62 µM (inactive),3.31 µM (inactive),4.82 µM (inactive),6.17 µM (inactive),2.79 µM (inactive),2.39,2.74 µM (inactive),3.1 µM (inactive),4.66 µM (inactive),3.58 µM (inactive),3.38 µM (inactive),3.66 µM (inactive),,2.94 µM (inactive)
CCn1c(=O)c2c3ccc(OC)cc3[nH]c2c2ccc(OC)cc21,24.6 µM (inactive),57 µM (inactive),32.9 µM (inactive),67.1 µM (inactive),70.5 µM (inactive),0.0426 µM (active),43.9 µM (inactive),67.6 µM (inactive),39.4 µM (inactive),> 100 µM (inactive),41.2,59.7 µM (inactive),,37.2 µM (inactive),> 100 µM (inactive),55.2 µM (inactive),79.4 µM (inactive),21.2 µM (inactive),> 100 µM (inactive)
CSc1ccccc1P(c1ccccc1SC)c1ccccc1SC,2.62 µM (inactive),> 100 µM (inactive),> 100 µM (inactive),> 100 µM (inactive),> 100 µM (inactive),> 100 µM (inactive),> 100 µM (inactive),> 100 µM (inactive),,,> 100,> 100 µM (inactive),> 100 µM (inactive),> 100 µM (inactive),> 100 µM (inactive),> 100 µM (inactive),> 100 µM (inactive),,> 100 µM (inactive)
